{"source": "ChEMBL document CHEMBL3507680", "about": "“University of Dundee, Gates Library screen for HepG2 cell viability”", "data": [{"assay": "Human HepG2 cell viability assay in 384 well format", "format": "toxicity, cell-based", "design": "dose 125 nL, time 70.5 hour; concentration not given beside the values", "settings": "HepG2 cells, read-out: Inhibition", "units": {"cytotoxicity at 70.5 h": "%"}, "values": [{"smiles": "CCNc1cc2c(nn1)CCN(C(=O)c1ccc(NC3CC3)nc1)C2", "cytotoxicity at 70.5 h": 1.85}, {"smiles": "COc1ccc2c3c1CN(S(C)(=O)=O)CC3=CC(C)(C)CO2", "cytotoxicity at 70.5 h": -6.24}, {"smiles": "COc1ccccc1C(=O)Nc1c(C)cnn1CC1CC1", "cytotoxicity at 70.5 h": -21.8}, {"smiles": "CCOC(=O)CCn1cnc2onc(-c3ccc(OC)cc3)c2c1=O", "cytotoxicity at 70.5 h": 35.2}, {"smiles": "NCC(=O)N1CCCCC1c1ccc(F)cc1", "note": "(stereo unspecified)", "cytotoxicity at 70.5 h": -2.07}, {"smiles": "NC(=O)C1CCN(CCCc2ccc(C(F)(F)F)cc2)CC1", "cytotoxicity at 70.5 h": 3.34}, {"smiles": "CC(C)[C@H](NC(=O)NC1CCS(=O)(=O)C1)C(=O)Nc1cccnc1", "note": "(stereo partly specified)", "cytotoxicity at 70.5 h": 9.45}, {"smiles": "CCc1nc2n(n1)CC(NCc1nc(-c3ccccn3)no1)CC2", "note": "(stereo unspecified)", "cytotoxicity at 70.5 h": -3.45}, {"smiles": "O=C(CN1CCS(=O)(=O)CC1)NC1CCCCc2ccccc21", "note": "(stereo unspecified)", "cytotoxicity at 70.5 h": -1.09}, {"smiles": "CCCn1cc(NC(=O)c2cccc(CN3CC=CC3)c2)nn1", "cytotoxicity at 70.5 h": 45.4}, {"smiles": "Cc1cc(NC(=O)CN(C)C2CCCN(c3cccnn3)C2)n(C)n1", "note": "(stereo unspecified)", "cytotoxicity at 70.5 h": -4.81}, {"smiles": "CCc1nc2n(n1)CC(NCc1ccnc(-c3ccccc3)n1)CC2", "note": "(stereo unspecified)", "cytotoxicity at 70.5 h": -10}, {"smiles": "CC(C)c1nccn1CCC(=O)NCC(C)(O)c1ccco1", "note": "(stereo unspecified)", "cytotoxicity at 70.5 h": -5.68}, {"smiles": "O=C1OCCCN1Cc1nc(-c2ccncc2)no1", "cytotoxicity at 70.5 h": -12.6}, {"smiles": "Cc1nc(CN2CCc3nc(N4CCCC4)nc(NC(C)C)c3C2)cs1", "cytotoxicity at 70.5 h": -3.99}, {"smiles": "CC(C)CC(=O)N1CC[C@@H]2[C@H](CC1)N(Cc1cccnc1)CCS2(=O)=O", "cytotoxicity at 70.5 h": 3.17}, {"smiles": "CS(=O)(=O)NC[C@]12COC[C@H]1CN(C(=O)c1ccncn1)C2", "cytotoxicity at 70.5 h": 15.5}, {"smiles": "Cc1ncccc1Oc1ncnc(N2CCCC(O)(CO)CC2)c1C", "note": "(stereo unspecified)", "cytotoxicity at 70.5 h": -16.4}, {"smiles": "CN(Cc1ccsc1)C(=O)CS(=O)(=O)Cc1ccc(Cl)c(Cl)c1", "cytotoxicity at 70.5 h": -9.28}, {"smiles": "Cn1nnc(NCc2ccc(OCc3ccc(Cl)cc3)cc2)n1", "cytotoxicity at 70.5 h": -4.01}, {"smiles": "Cc1ccccc1OC(C(=O)N1CCC2(CC1)CN(C)C(=O)O2)C(C)C", "note": "(stereo unspecified)", "cytotoxicity at 70.5 h": -4.56}, {"smiles": "O=C(CCn1cccn1)N1CCN(CC(F)F)CC1", "cytotoxicity at 70.5 h": -1.77}, {"smiles": "Cc1ccc2c(c1C)OCC2NCc1cccc(C#N)c1", "note": "(stereo unspecified)", "cytotoxicity at 70.5 h": 1.34}, {"smiles": "Cc1ncsc1C(=O)N1CCCC(n2cncn2)C1", "note": "(stereo unspecified)", "cytotoxicity at 70.5 h": -13.3}, {"smiles": "CC(=O)N1CCCC1CCc1ccc(Cl)nn1", "note": "(stereo unspecified)", "cytotoxicity at 70.5 h": -2.45}, {"smiles": "Cc1cc2c(N3CCC(N(C)Cc4nccs4)CC3)ncnc2s1", "cytotoxicity at 70.5 h": 9.35}, {"smiles": "CCOc1ccc(S(=O)(=O)NCCc2ccc(N(C)C)cc2)cc1C", "cytotoxicity at 70.5 h": -3.6}, {"smiles": "N#Cc1ccc(Cn2cncn2)c(F)c1", "cytotoxicity at 70.5 h": -12.7}, {"smiles": "COCCCn1ccnc1-c1cnc(OC)nc1", "cytotoxicity at 70.5 h": -9.97}, {"smiles": "Cc1ccc(C(=O)N2CCC3(CC2)c2ccccc2[C@@H](N)[C@@H]3O)cc1F", "cytotoxicity at 70.5 h": -10.1}, {"smiles": "COc1ncnc(N)c1CNCC(C)SC", "note": "(stereo unspecified)", "cytotoxicity at 70.5 h": 34.8}, {"smiles": "COc1cc(C)nc(N2CCN(C(=O)CCc3cscn3)CC2)n1", "cytotoxicity at 70.5 h": -6.3}, {"smiles": "O=C(c1ccc(C2CCCO2)s1)N1CCS(=O)(=O)CC1", "note": "(stereo unspecified)", "cytotoxicity at 70.5 h": -8.51}, {"smiles": "COc1cc(-c2cc(NC3CCCC3)nc3[nH]ccc23)nc(N)n1", "cytotoxicity at 70.5 h": -11.3}, {"smiles": "CCCc1nc(C(=O)N2CCN(S(=O)(=O)CC)CC2)cs1", "cytotoxicity at 70.5 h": 10.2}, {"smiles": "CCn1cnc2c(c(Br)nn2C)c1=O", "cytotoxicity at 70.5 h": -17.1}, {"smiles": "CN1CCN(C(=O)c2cnsn2)c2ccc(F)cc21", "cytotoxicity at 70.5 h": -10.4}, {"smiles": "CC(C)c1cc(COCCC(=O)O)no1", "cytotoxicity at 70.5 h": -6.18}, {"smiles": "CNc1nccc(-c2cnc3sc(C)c(C)n3c2=O)n1", "cytotoxicity at 70.5 h": 0.0839}, {"smiles": "CC(C)c1cccc(NC(=O)Cn2c(=O)n(C)c(=O)c3sccc32)c1", "cytotoxicity at 70.5 h": 5.39}, {"smiles": "COCCC1(CO)CCCN(Cc2ccc(F)c(C)c2)C1", "note": "(stereo unspecified)", "cytotoxicity at 70.5 h": -6.14}, {"smiles": "CS(=O)(=O)NC[C@]12COC[C@H]1CN(C(=O)c1cnccn1)C2", "cytotoxicity at 70.5 h": 19.5}, {"smiles": "CC(C)c1ncc2c(n1)CN(CC(=O)Nc1ccncc1)CC2", "cytotoxicity at 70.5 h": -7.98}, {"smiles": "N#CCCN(CC1CCOC1)Cn1ccc(-c2cccs2)n1", "note": "(stereo unspecified)", "cytotoxicity at 70.5 h": 8.39}, {"smiles": "COc1ccccc1CN1CCC(c2nccc(C)n2)C1", "note": "(stereo unspecified)", "cytotoxicity at 70.5 h": 27.1}, {"smiles": "CN1CCN(C(=O)[C@H]2C[C@@H]3CN(c4ncc(F)cn4)C[C@@H]3N2C)CC1", "cytotoxicity at 70.5 h": -8.27}]}]}
